Laboratory results published in ChEMBL document CHEMBL1201862, “PubChem BioAssay data set” (2004).
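Five compound concentrations were applied to cells in 96-well plates for 48 hours; endpoints were derived by simple linear interpolation of the resulting dose-response curve. GI50: concentration for 50% inhibition of growth.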 The source made the active and inactive calls. Cut-off read from the data, not from the text of the source: active = GI50 up to about 1.1 µM and inactive = higher.

Columns and labels:
Assay in all cases: NCI tumour cell line growth inhibition, 48 h
OVCAR-3 = test system: OVCAR-3
MDA-MB-435 = test system: MDA-MB-435
MOLT-4 = test system: MOLT-4
DMS-273 = test system: DMS-273
HCT-116 = test system: HCT-116
A549 = test system: A549
NCI/ADR-RES = test system: NCI/ADR-RES
SR = test system: SR
UO-31 = test system: UO-31
OVCAR-5 = test system: OVCAR-5
IGROV-1 = test system: IGROV-1
HL-60 = test system: HL-60
SK-MEL-2 = test system: SK-MEL-2
Hs-578T = test system: Hs-578T
MDA-MB-231 = test system: MDA-MB-231
SK-MEL-5 = test system: SK-MEL-5
HCT-15 = test system: HCT-15
NCI-H460 = test system: NCI-H460
DLD-1 = test system: DLD-1
M14 = test system: M14

COc1ccc(OC)c2c(=S)c3ccccc3[nH]c12
GI50 (OVCAR-3): > 100 µM (inactive)
GI50 (MDA-MB-435): 71.3 µM (inactive)
GI50 (MOLT-4): 39.4 µM (inactive)
GI50 (DMS-273): > 82.8 µM (inactive)
GI50 (HCT-116): 64.6 µM (inactive)
GI50 (A549): > 100 µM (inactive)
GI50 (NCI/ADR-RES): > 100 µM (inactive)
GI50 (SR): 49.5 µM (inactive)
GI50 (UO-31): 39.4 µM (inactive)
GI50 (OVCAR-5): > 94.8 µM (inactive)
GI50 (IGROV-1): > 96.6 µM (inactive)
GI50 (HL-60): 25.3 µM (inactive)
GI50 (SK-MEL-2): > 100 µM (inactive)
GI50 (Hs-578T): > 100 µM (inactive)
GI50 (MDA-MB-231): > 100 µM (inactive)
GI50 (SK-MEL-5): 22.2 µM (inactive)
GI50 (HCT-15): 47.5 µM
GI50 (NCI-H460): > 63 µM (inactive)
GI50 (DLD-1): > 100 µM (inactive)
GI50 (M14): > 100 µM (inactive)

Cc1cc(C)c2c(c1)CSCc1cc(C)cc(C)c1-2
GI50 (OVCAR-3): 30.3 µM (inactive)
GI50 (MOLT-4): 21.1 µM (inactive)
GI50 (DMS-273): 58.1 µM (inactive)
GI50 (HCT-116): 22 µM (inactive)
GI50 (A549): 30.9 µM (inactive)
GI50 (SR): 23.9 µM (inactive)
GI50 (UO-31): 39.4 µM (inactive)
GI50 (OVCAR-5): 29.9 µM (inactive)
GI50 (IGROV-1): 34.1 µM (inactive)
GI50 (HL-60): 21.1 µM (inactive)
GI50 (SK-MEL-2): 21.3 µM (inactive)
GI50 (SK-MEL-5): 21.6 µM (inactive)
GI50 (HCT-15): 32.4 µM
GI50 (NCI-H460): 24.2 µM (inactive)
GI50 (DLD-1): 33.3 µM (inactive)
GI50 (M14): 22.6 µM (inactive)

O=C(CCN1CCN(c2cccc(Cl)c2)CC1)N1CCc2c([nH]c3ccccc23)C1c1cccnc1 (stereo unspecified)
GI50 (OVCAR-3): 2.47 µM (inactive)
GI50 (MOLT-4): 2.95 µM (inactive)
GI50 (DMS-273): 8.28 µM (inactive)
GI50 (HCT-116): 7.13 µM (inactive)
GI50 (A549): 6.28 µM (inactive)
GI50 (SR): 1.75 µM (inactive)
GI50 (UO-31): 2.98 µM (inactive)
GI50 (OVCAR-5): 4.72 µM (inactive)
GI50 (IGROV-1): 7.87 µM (inactive)
GI50 (HL-60): 2.54 µM (inactive)
GI50 (SK-MEL-2): 6.12 µM (inactive)
GI50 (SK-MEL-5): 6.25 µM (inactive)
GI50 (HCT-15): 3.4 µM
GI50 (NCI-H460): 4.05 µM (inactive)
GI50 (DLD-1): 5.32 µM (inactive)
GI50 (M14): 3.37 µM (inactive)

Nc1c(Cl)ncnc1NCCCNc1ncnc(Cl)c1N
GI50 (OVCAR-3): > 100 µM (inactive)
GI50 (MOLT-4): > 100 µM (inactive)
GI50 (DMS-273): > 100 µM (inactive)
GI50 (HCT-116): > 100 µM (inactive)
GI50 (A549): > 100 µM (inactive)
GI50 (SR): > 100 µM (inactive)
GI50 (UO-31): 95.3 µM (inactive)
GI50 (OVCAR-5): > 100 µM (inactive)
GI50 (IGROV-1): > 100 µM (inactive)
GI50 (HL-60): > 100 µM (inactive)
GI50 (SK-MEL-2): > 100 µM (inactive)
GI50 (SK-MEL-5): > 100 µM (inactive)
GI50 (HCT-15): > 100 µM
GI50 (NCI-H460): > 100 µM (inactive)
GI50 (DLD-1): > 100 µM (inactive)
GI50 (M14): > 100 µM (inactive)

N#CCCN(CCC#N)C(=O)c1cccc(C(=O)N(CCC#N)CCC#N)c1
GI50 (OVCAR-3): > 100 µM (inactive)
GI50 (MOLT-4): > 100 µM (inactive)
GI50 (DMS-273): > 100 µM (inactive)
GI50 (HCT-116): > 55.6 µM (inactive)
GI50 (A549): > 69.7 µM (inactive)
GI50 (SR): > 44.2 µM (inactive)
GI50 (UO-31): > 100 µM (inactive)
GI50 (OVCAR-5): > 100 µM (inactive)
GI50 (IGROV-1): > 100 µM (inactive)
GI50 (HL-60): > 55.2 µM (inactive)
GI50 (SK-MEL-2): > 100 µM (inactive)
GI50 (SK-MEL-5): > 56.5 µM (inactive)
GI50 (HCT-15): > 100 µM
GI50 (NCI-H460): > 47.5 µM (inactive)
GI50 (DLD-1): > 88.9 µM (inactive)
GI50 (M14): > 69 µM (inactive)

COc1cc(C2C(Cl)C(=O)N2n2cnc3ccccc3c2=O)cc(OC)c1OC (stereo unspecified)
GI50 (OVCAR-3): > 100 µM (inactive)
GI50 (MOLT-4): 59.2 µM (inactive)
GI50 (DMS-273): 41 µM (inactive)
GI50 (HCT-116): > 100 µM (inactive)
GI50 (A549): > 100 µM (inactive)
GI50 (SR): 31.2 µM (inactive)
GI50 (UO-31): > 100 µM (inactive)
GI50 (OVCAR-5): > 100 µM (inactive)
GI50 (IGROV-1): > 100 µM (inactive)
GI50 (HL-60): 28.2 µM (inactive)
GI50 (SK-MEL-2): > 100 µM (inactive)
GI50 (SK-MEL-5): > 100 µM (inactive)
GI50 (HCT-15): 63.7 µM
GI50 (NCI-H460): > 100 µM (inactive)
GI50 (DLD-1): > 100 µM (inactive)
GI50 (M14): 84.5 µM (inactive)

COC(=O)[C@]12CC=C3O[C@@H]4OC5(CCCCC5)O[C@@H]4[C@H]3C1C(=O)C=CC2=O (stereo partly specified)
GI50 (OVCAR-3): 8.81 µM (inactive)
GI50 (MDA-MB-435): > 10 µM (inactive)
GI50 (MOLT-4): 7.03 µM (inactive)
GI50 (DMS-273): 18.1 µM (inactive)
GI50 (HCT-116): 17.5 µM (inactive)
GI50 (A549): 32.1 µM (inactive)
GI50 (NCI/ADR-RES): 18.1 µM (inactive)
GI50 (SR): 22.3 µM (inactive)
GI50 (UO-31): 17 µM (inactive)
GI50 (OVCAR-5): 20.5 µM (inactive)
GI50 (IGROV-1): 18.4 µM (inactive)
GI50 (HL-60): 8.91 µM (inactive)
GI50 (SK-MEL-2): 22.2 µM (inactive)
GI50 (Hs-578T): 26.1 µM (inactive)
GI50 (MDA-MB-231): 16.8 µM (inactive)
GI50 (SK-MEL-5): 18.6 µM (inactive)
GI50 (HCT-15): 15.6 µM
GI50 (NCI-H460): 22.3 µM (inactive)
GI50 (DLD-1): 15.5 µM (inactive)
GI50 (M14): 17.4 µM (inactive)

Cc1c2cc[n+](C)cc2c(C)c2c1sc1ccccc12
GI50 (OVCAR-3): 1.29 µM (inactive)
GI50 (MDA-MB-435): 2.05 µM (inactive)
GI50 (MOLT-4): 0.131 µM (active)
GI50 (DMS-273): 0.853 µM (active)
GI50 (HCT-116): 3.63 µM (inactive)
GI50 (A549): 0.159 µM (active)
GI50 (NCI/ADR-RES): 18.9 µM (inactive)
GI50 (SR): 0.246 µM (active)
GI50 (UO-31): 8.69 µM (inactive)
GI50 (OVCAR-5): 3.86 µM (inactive)
GI50 (IGROV-1): 1.12 µM (inactive)
GI50 (HL-60): 3.33 µM (inactive)
GI50 (SK-MEL-2): 2.9 µM (inactive)
GI50 (Hs-578T): 0.069 µM (active)
GI50 (MDA-MB-231): 2.39 µM (inactive)
GI50 (SK-MEL-5): 1.39 µM (inactive)
GI50 (HCT-15): 18.3 µM
GI50 (NCI-H460): 0.35 µM (active)
GI50 (DLD-1): 3.05 µM (inactive)
GI50 (M14): 4.73 µM (inactive)

CC(=O)Nc1ccc(-c2nnc(SCC(=O)Nc3cccc([N+](=O)[O-])c3)o2)cc1
GI50 (OVCAR-3): 13.5 µM (inactive)
GI50 (MOLT-4): 4.39 µM (inactive)
GI50 (DMS-273): 10.9 µM (inactive)
GI50 (HCT-116): 14 µM (inactive)
GI50 (A549): 17.5 µM (inactive)
GI50 (SR): 2.87 µM (inactive)
GI50 (UO-31): 13.2 µM (inactive)
GI50 (OVCAR-5): 23.9 µM (inactive)
GI50 (IGROV-1): 4.11 µM (inactive)
GI50 (HL-60): 10.6 µM (inactive)
GI50 (SK-MEL-2): 18.3 µM (inactive)
GI50 (SK-MEL-5): 14 µM (inactive)
GI50 (HCT-15): 15.4 µM
GI50 (NCI-H460): 14.5 µM (inactive)
GI50 (DLD-1): 12.8 µM (inactive)
GI50 (M14): 16.1 µM (inactive)

Cc1ccc(S(=O)(=O)OC2CSSCC2OS(=O)(=O)c2ccc(C)cc2)cc1 (stereo unspecified)
GI50 (OVCAR-3): 13.3 µM (inactive)
GI50 (MOLT-4): 2.59 µM (inactive)
GI50 (DMS-273): 10.1 µM (inactive)
GI50 (HCT-116): 13.3 µM (inactive)
GI50 (A549): 18 µM (inactive)
GI50 (SR): 7.69 µM (inactive)
GI50 (UO-31): 15.2 µM (inactive)
GI50 (OVCAR-5): 23.4 µM (inactive)
GI50 (IGROV-1): 16.8 µM (inactive)
GI50 (HL-60): 2.62 µM (inactive)
GI50 (SK-MEL-2): 15.7 µM (inactive)
GI50 (SK-MEL-5): 15.7 µM (inactive)
GI50 (HCT-15): 10.2 µM
GI50 (NCI-H460): 17.7 µM (inactive)
GI50 (DLD-1): 11 µM (inactive)
GI50 (M14): 12.6 µM (inactive)

N=C(N)SCCc1cn2ccccc2n1
GI50 (OVCAR-3): > 100 µM (inactive)
GI50 (MOLT-4): > 100 µM (inactive)
GI50 (DMS-273): > 100 µM (inactive)
GI50 (HCT-116): > 100 µM (inactive)
GI50 (A549): > 100 µM (inactive)
GI50 (SR): > 100 µM (inactive)
GI50 (UO-31): > 100 µM (inactive)
GI50 (OVCAR-5): > 100 µM (inactive)
GI50 (HL-60): > 100 µM (inactive)
GI50 (SK-MEL-2): > 100 µM (inactive)
GI50 (SK-MEL-5): 6.92 µM (inactive)
GI50 (HCT-15): > 100 µM
GI50 (NCI-H460): > 100 µM (inactive)
GI50 (DLD-1): 7.03 µM (inactive)
GI50 (M14): > 100 µM (inactive)

COC(=O)C1[C@H](c2ccc3c(c2)OCO3)OC(=O)[C@]1(C(=O)OC)C(=O)c1ccc(OC)c(OC)c1 (stereo partly specified)
GI50 (OVCAR-3): 75.5 µM (inactive)
GI50 (MOLT-4): 20.5 µM (inactive)
GI50 (DMS-273): 25.1 µM (inactive)
GI50 (SR): 34.2 µM (inactive)
GI50 (UO-31): 87.3 µM (inactive)
GI50 (OVCAR-5): 56.8 µM (inactive)
GI50 (IGROV-1): 42.3 µM (inactive)
GI50 (HL-60): 25.2 µM (inactive)
GI50 (SK-MEL-2): 23.4 µM (inactive)
GI50 (SK-MEL-5): 56.2 µM (inactive)
GI50 (HCT-15): 33.7 µM
GI50 (NCI-H460): 38.7 µM (inactive)
GI50 (DLD-1): 17.4 µM (inactive)
GI50 (M14): 70.1 µM (inactive)
